Here are results for three molecules from ChEMBL document CHEMBL5653631, “A Potent and Selective ULK1 Inhibitor Suppresses Autophagy and Sensitizes Cancer Cells to Nutrient Stress” (iScience, 2018).

What is called inhibition is the change of the read-out against control, counted positive when it falls.

The target in assay [1] is T1, MAP kinase-activated protein kinase 5 (Homo sapiens) (UniProt Q8IW41).
T1 sequence (whole entry): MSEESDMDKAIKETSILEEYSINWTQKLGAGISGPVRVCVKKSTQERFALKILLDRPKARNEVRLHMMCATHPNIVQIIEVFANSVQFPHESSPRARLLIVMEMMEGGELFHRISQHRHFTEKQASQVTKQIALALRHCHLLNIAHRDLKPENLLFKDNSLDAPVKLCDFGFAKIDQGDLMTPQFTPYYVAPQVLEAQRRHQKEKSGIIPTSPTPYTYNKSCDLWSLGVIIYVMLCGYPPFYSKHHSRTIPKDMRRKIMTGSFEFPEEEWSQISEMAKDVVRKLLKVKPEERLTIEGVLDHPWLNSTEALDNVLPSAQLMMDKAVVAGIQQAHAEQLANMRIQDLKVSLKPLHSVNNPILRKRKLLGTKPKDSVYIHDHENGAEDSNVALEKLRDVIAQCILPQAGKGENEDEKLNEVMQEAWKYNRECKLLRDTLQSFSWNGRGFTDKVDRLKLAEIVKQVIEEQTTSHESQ
Kind of assay: Inhibition of human recombinant MAPKAPK5 at 40 nM in presence of ATP by radiometric assay relative to control.

Assay [2] addresses Ribosomal protein S6 kinase alpha-5 (Homo sapiens) (UniProt O75582). Kind of assay: Inhibition of human recombinant MSK1 at 500 nM related to control ULK1.
Assay [3] concerns the target Rho-associated protein kinase 2 (Homo sapiens) (UniProt O75116). Kind of assay: Inhibition of human recombinant ROCK2 at 500 nM in presence of ATP by radiometric assay relative to control.
For assay [4], the target named is T2, Inhibitor of nuclear factor kappa-B kinase subunit alpha (Homo sapiens) (UniProt O15111).
T2 sequence (whole entry): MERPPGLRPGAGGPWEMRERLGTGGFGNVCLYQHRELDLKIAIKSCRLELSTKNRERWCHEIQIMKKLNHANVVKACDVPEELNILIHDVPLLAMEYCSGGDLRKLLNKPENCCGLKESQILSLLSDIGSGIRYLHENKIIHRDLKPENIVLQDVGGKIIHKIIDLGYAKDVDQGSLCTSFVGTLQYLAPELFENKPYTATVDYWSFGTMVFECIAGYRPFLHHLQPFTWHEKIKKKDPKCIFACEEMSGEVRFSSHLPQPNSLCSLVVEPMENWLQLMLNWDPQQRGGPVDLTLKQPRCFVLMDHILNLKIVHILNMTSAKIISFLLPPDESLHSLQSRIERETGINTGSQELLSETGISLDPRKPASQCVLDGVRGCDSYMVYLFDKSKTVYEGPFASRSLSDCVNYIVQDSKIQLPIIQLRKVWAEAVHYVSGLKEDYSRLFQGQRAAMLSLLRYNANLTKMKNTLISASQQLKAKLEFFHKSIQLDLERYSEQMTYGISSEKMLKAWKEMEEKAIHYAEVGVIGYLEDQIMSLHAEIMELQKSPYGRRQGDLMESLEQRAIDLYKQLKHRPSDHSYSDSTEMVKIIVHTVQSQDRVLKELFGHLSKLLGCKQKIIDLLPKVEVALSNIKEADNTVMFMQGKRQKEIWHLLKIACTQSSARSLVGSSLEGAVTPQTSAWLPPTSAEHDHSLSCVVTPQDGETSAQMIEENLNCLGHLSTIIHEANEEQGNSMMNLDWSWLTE
Kind of assay: Inhibition of human recombinant IKKa at 500 nM in presence of ATP by radiometric assay relative to control.

The target in assay [5] is Non-receptor tyrosine-protein kinase TYK2 (Homo sapiens) (UniProt P29597). The experiment in a line: Inhibition of human recombinant TYK2 at 500 nM in presence of ATP by radiometric assay relative to control.
Assay [6] addresses T3, Serine/threonine-protein kinase TAO2 (Homo sapiens) (UniProt Q9UL54).
T3 sequence (whole entry): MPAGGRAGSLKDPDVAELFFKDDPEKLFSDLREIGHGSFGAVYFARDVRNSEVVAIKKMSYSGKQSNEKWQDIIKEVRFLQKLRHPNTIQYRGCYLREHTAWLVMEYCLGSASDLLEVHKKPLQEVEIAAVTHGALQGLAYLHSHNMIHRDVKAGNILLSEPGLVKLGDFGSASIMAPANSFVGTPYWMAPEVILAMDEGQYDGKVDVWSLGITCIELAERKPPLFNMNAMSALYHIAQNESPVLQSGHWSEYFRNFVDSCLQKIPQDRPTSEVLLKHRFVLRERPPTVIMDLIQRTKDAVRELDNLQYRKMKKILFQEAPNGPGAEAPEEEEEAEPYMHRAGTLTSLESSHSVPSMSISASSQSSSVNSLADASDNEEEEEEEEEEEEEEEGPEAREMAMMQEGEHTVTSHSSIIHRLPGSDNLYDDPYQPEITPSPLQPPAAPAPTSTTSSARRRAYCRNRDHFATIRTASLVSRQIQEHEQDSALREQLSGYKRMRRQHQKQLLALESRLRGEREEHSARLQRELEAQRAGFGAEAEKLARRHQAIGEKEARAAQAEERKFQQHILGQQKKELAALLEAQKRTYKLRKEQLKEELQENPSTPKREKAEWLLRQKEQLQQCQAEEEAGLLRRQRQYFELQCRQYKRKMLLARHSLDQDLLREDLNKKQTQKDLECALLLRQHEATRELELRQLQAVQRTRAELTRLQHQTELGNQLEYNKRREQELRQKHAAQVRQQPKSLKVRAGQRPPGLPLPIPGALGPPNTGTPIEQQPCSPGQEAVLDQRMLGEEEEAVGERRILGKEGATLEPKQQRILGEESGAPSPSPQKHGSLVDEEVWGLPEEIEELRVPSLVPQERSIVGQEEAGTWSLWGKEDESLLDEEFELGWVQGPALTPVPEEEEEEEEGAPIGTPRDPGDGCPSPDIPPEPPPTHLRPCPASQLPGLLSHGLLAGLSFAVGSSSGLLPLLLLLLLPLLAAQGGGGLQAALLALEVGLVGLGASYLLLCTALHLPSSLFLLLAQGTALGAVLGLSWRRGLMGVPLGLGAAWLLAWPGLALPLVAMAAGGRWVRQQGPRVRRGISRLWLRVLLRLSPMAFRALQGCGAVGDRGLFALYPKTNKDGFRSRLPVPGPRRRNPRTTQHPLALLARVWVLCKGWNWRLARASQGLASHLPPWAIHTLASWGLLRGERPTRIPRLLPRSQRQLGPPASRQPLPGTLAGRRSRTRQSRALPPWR
The experiment in a line: Inhibition of human recombinant TAO2 at 15 nM related to control ULK1.

For assay [7], the target named is Dual specificity protein kinase CLK4 (Homo sapiens) (UniProt Q9HAZ1). Kind of assay: Inhibition of human recombinant CLK4 at 15 nM in presence of ATP by radiometric assay relative to control.
Assay [8] addresses Activin receptor type-2A (Homo sapiens) (UniProt P27037). Kind of assay: Inhibition of human recombinant ACTR2 at 15 nM in presence of ATP by radiometric assay relative to control.
For assay [9], the target named is Serine/threonine-protein kinase Nek4 (Homo sapiens) (UniProt P51957). Kind of assay: Inhibition of human recombinant NEK4 at 15 nM in presence of ATP by radiometric assay relative to control.

Turning to `O=C(N[C@@H](C1CC1)C(F)(F)F)c1cc(-c2cnn3cc(-c4ccc(F)cc4)cnc23)cs1`, the inhibition in [1] was 0%.
On to `CNC(=O)c1ccccc1Oc1nc(Nc2cc(OC)c(OC)c(OC)c2)ncc1Br`, for which the fold change (FC) in [2] came out at 0.15. The inhibition in assay [3] turned out to be 0%; in [4], 2%; in [5] it was 78%.
`CC(C)[C@H](NC(=O)c1cc(-c2cnn3cc(-c4ccc(OCCN5CCCCC5)cc4)cnc23)cs1)C(F)(F)F`: the fold change (FC) in assay [6] is 0. In addition, the inhibition in assay [7] is 83%; in [8], 4%; in assay [9], 6%.
